# Reference: paper PMC9804084, “Multiple drug transporters contribute to the brain transfer of levofloxacin” (CNS Neuroscience & Therapeutics, 2022)
# Like-named read-outs stand apart in the source and are kept apart here.
# Experiment: In vivo microdialysis pharmacokinetics of LVFX without transporter inhibitors
# Set-up: species or system rat
# Details: for AUC(0-inf) / Cmax / AUC(0-t) / Tmax / Kp / MRT / half-life: rat; for AUC(0-inf) / Cmax / AUC(0-t) / Tmax / MRT / half-life: iv; for AUC(0-inf) / Cmax / AUC(0-t) / MRT / half-life: 50 mg/kg, mean ± SD; for AUC(0-t): read-out: AUC0–180 (converted); for Kp: intravenous, LVFX 50 mg/kg tail vein, no inhibitor
# Experimental: On the day of surgery, rats were anesthetized using inhaled isoflurane via a facemask. The rats were placed in a stereotaxic frame (Gene&I), and the body temperature was maintained with a homoeothermic blanket set at 37°C. A midline incision was made to expose the skull. According to the Paxinos and Watson atlas, two microdialysis intracerebral guide cannulae (Eicom Co.) were implanted into the hippocampus CA1 region (Hp‐CA1 coordinates: AP −4.16 mm; ML −2.2 mm; DV −2.9 mm) and lateral ventricle (LV coordinates: AP −1.4 mm; ML +2.2 mm; DV −3.4 mm). Fixed to the skull using a screw and dental cement. After 3 days of recovery, the rats were anesthetized with isoflurane again. An intravascular probe (TP‐100‐20; 20 mm, Eicom Co.) was implanted into the jugular vein toward the right atrium. After the blood microdialysis probe was positioned within the jugular vein, the pipeline was connected to perfuse with ACD solution (citric acid 3.5 mM; sodium citrate 7.5 mM; dextrose 13.6 mM) at a flow rate of […], and the Hamilton microinjection pump was used for continuous perfusion. After stopping isoflurane inhalation, the rats were allowed to wake up naturally on the homoeothermic blanket. The awake rats were placed in a device that allowed them to move freely. Animals were allowed to recover for an additional 24 h.
# All microdialysate concentrations (C m) from the hippocampal ECF and lateral ventricle CSF were converted to the unbound drug concentration (C u) at the target site using the following formula: C u = C m/R dial.
# A total of 32 rats were randomly divided into the following groups: • Control group, N = 12: vehicle solution + LVFX (50 mg/kg). • TAR group, N = 5: Tariquidar (8 mg/kg) + LVFX (50 mg/kg). • Ko143 group, N = 5: Ko143 (15 mg/kg) + LVFX (50 mg/kg). • MK571 group, N = 5: MK571 (20 mg/kg) + LVFX (50 mg/kg). • PRO group, N = 5: Probenecid (50 mg/kg) + LVFX (50 mg/kg).
# Given that the solvents of intervention drugs were different, the control group was subdivided into four subgroups (n = 3). According to the preparation method of the transporter regulator, an equal volume of solvent was used as the control.
# Levofloxacin was freshly dissolved in isotonic saline and administered via tail vein injection. Thirty minutes before LVFX administration, the intervention drugs of each group were injected intraperitoneally. To reduce the possible effect of solvents on BBB or BCSFB permeability of LVFX, we prioritized water as the solvent. However, Tariquidar and Ko143 are insoluble in water, and a cosolvent must be used to prepare agents that animals can tolerate. According to the different physicochemical properties of these four inhibitors, the preparation of each transporter inhibitor solution in this experiment was as follows. • P‐glycoprotein (P‐gp) inhibitor Tariquidar[22]: Tariquidar was freshly dissolved in DMSO to 8 mg/ml and then diluted to 4 mg/ml with a solution containing 10% Tween‐80, 25% PEG300, and 65% sterile water. • Breast cancer resistance protein (BCRP) inhibitor Ko143[23]: Ko143 was freshly dissolved in DMSO to 15 mg/ml and then diluted to 7.5 mg/ml with a solution containing 10% Tween‐80, 25% PEG300, and 65% sterile water. • Multidrug resistance‐associated proteins (MRPs) inhibitor MK571[24]: MK571 sodium salt hydrate was dissolved in 1.25% (w/v) aq sodium hydrogen carbonate (NaHCO3) solution to obtain a concentration of 10 mg/ml. • Organic anion transporters (OATs) inhibitor probenecid[25]: Probenecid was dissolved in NaOH (pH = 9.0–9.2) alkalized physiological saline to obtain a concentration of 25 mg/ml.
# The pipelines where the blood and brain probes were installed were perfused at the speed of 2 μl/min with ACD solution and ACSF, respectively. Two brain probes were inserted into guide cannulas of the target site and allowed to equilibrate for 1 h. Subsequently, the rats were treated according to their corresponding groups in the device where they could move freely.
# [1] = CSF (lateral ventricle microdialysate), CSF, Group 1: vehicle solution of Tariquidar/Ko143 + LVFX 50 mg/kg, n=3
# [2] = CSF (lateral ventricle microdialysate), CSF, Group 2: 1.25% NaHCO3 solution + LVFX 50 mg/kg, n=3
# [3] = CSF (lateral ventricle microdialysate), CSF, Group 4: LVFX 50 mg/kg alone, n=3
# [4] = CSF (lateral ventricle microdialysate), pH 9, CSF, Group 3: physiological saline alkalinized with NaOH (pH 9.0–9.2) + LVFX 50 mg/kg, n=3
# [5] = CSF, CSF, Group 1: vehicle solution of Tariquidar/Ko143 + LVFX 50 mg/kg, n=3
# [6] = CSF, CSF, Group 2: 1.25% NaHCO3 solution + LVFX 50 mg/kg, n=3
# [7] = CSF, CSF, Group 4: LVFX 50 mg/kg alone, n=3
# [8] = CSF, pH 9, CSF, Group 3: physiological saline alkalinized with NaOH (pH 9.0–9.2) + LVFX 50 mg/kg, n=3
# [9] = blood (microdialysate, unbound), blood, Group 1: vehicle solution of Tariquidar/Ko143 + LVFX 50 mg/kg, n=3
# [10] = blood (microdialysate, unbound), blood, Group 2: 1.25% NaHCO3 solution + LVFX 50 mg/kg, n=3
# [11] = blood (microdialysate, unbound), blood, Group 4: LVFX 50 mg/kg alone, n=3
# [12] = blood (microdialysate, unbound), pH 9, blood, Group 3: physiological saline alkalinized with NaOH (pH 9.0–9.2) + LVFX 50 mg/kg, n=3
# [13] = blood, blood, control group, vehicle + LVFX 50 mg/kg tail vein, N=12
# [14] = brain ECF, brain ECF, Group 1: vehicle solution of Tariquidar/Ko143 + LVFX 50 mg/kg, n=3
# [15] = brain ECF, brain ECF, Group 2: 1.25% NaHCO3 solution + LVFX 50 mg/kg, n=3
# [16] = brain ECF, brain ECF, Group 4: LVFX 50 mg/kg alone, n=3
# [17] = brain ECF, pH 9, brain ECF, Group 3: physiological saline alkalinized with NaOH (pH 9.0–9.2) + LVFX 50 mg/kg, n=3
# [18] = hippocampal brain ECF (microdialysate, unbound), hippocampal brain ECF, control group, vehicle + LVFX 50 mg/kg tail vein, N=12
# [19] = lateral ventricle CSF (microdialysate, unbound), lateral ventricle CSF, control group, vehicle + LVFX 50 mg/kg tail vein, N=12
smiles,measurement,setting,value
"C[C@H]1COc2c(N3CCN(C)CC3)c(F)cc3c(=O)c(C(=O)O)cn1c23 [LVFX, Levofloxacin]",T max,"CSF, Group 2: 1.25% NaHCO3 solution + LVFX 50 mg/kg, n=3",15 min
same,T max,"CSF, Group 4: LVFX 50 mg/kg alone, n=3",15 min
same,T max,"blood, Group 2: 1.25% NaHCO3 solution + LVFX 50 mg/kg, n=3",15 min
same,T max,"blood, control group, vehicle + LVFX 50 mg/kg tail vein, N=12",15 min
same,T max,"brain ECF, Group 2: 1.25% NaHCO3 solution + LVFX 50 mg/kg, n=3",15 min
same,T max,"brain ECF, Group 4: LVFX 50 mg/kg alone, n=3",15 min
same,AUC(0-inf),[1],4080 ng·h/mL
same,Cmax,[1],3540 ± 150 ng/mL
same,AUC(0-t),[1],3810 ng·h/mL
same,AUC(0-inf),[2],4490 ng·h/mL
same,Cmax,[2],3860 ± 320 ng/mL
same,AUC(0-t),[2],4140 ng·h/mL
same,Cmax,[3],3480 ± 370 ng/mL
same,AUC(0-t),[3],4330 ng·h/mL
same,AUC(0-inf),[4],4950 ng·h/mL
same,Cmax,[4],3700 ± 140 ng/mL
same,AUC(0-t),[4],4490 ng·h/mL
same,Tmax,[1],15 min
same,Tmax,"CSF (lateral ventricle microdialysate), CSF, Group 3: physiological saline alkalinized with NaOH (pH 9.0–9.2) + LVFX 50 mg/kg, n=3",15 min
same,Kp,"CSF / blood (unbound, microdialysate), AUCu,CSF/AUCu,blood, control group, N=12, read-out: K p,uu,CSF",0.412 ± 0.024
same,MRT,[5],1.18 h
same,half-life,[5],38 ± 11.9 min
same,MRT,[6],1.23 h
same,half-life,[6],50.6 ± 8.78 min
same,AUC(0-inf),[7],4680 ng·h/mL
same,MRT,[7],1.28 h
same,half-life,[7],42.2 ± 5.6 min
same,MRT,[8],1.36 h
same,half-life,[8],45.8 ± 19.7 min
same,AUC(0-inf),[9],11000 ng·h/mL
same,MRT,[9],1.07 h
same,half-life,[9],40.5 ± 5.68 min
same,AUC(0-t),[9],10300 ng·h/mL
same,AUC(0-inf),[10],11700 ng·h/mL
same,MRT,[10],1.23 h
same,half-life,[10],50.5 ± 9.53 min
same,AUC(0-t),[10],10700 ng·h/mL
same,AUC(0-inf),[11],11700 ng·h/mL
same,MRT,[11],1.44 h
same,half-life,[11],60.6 ± 11.2 min
same,AUC(0-t),[11],10200 ng·h/mL
same,AUC(0-inf),[12],10100 ng·h/mL
same,MRT,[12],1.16 h
same,half-life,[12],45.3 ± 6.27 min
same,AUC(0-t),[12],9340 ng·h/mL
same,Tmax,[11],15 min
same,Cmax,"blood, blood, Group 1: vehicle solution of Tariquidar/Ko143 + LVFX 50 mg/kg, n=3",10400 ± 1040 ng/mL
same,Cmax,"blood, blood, Group 2: 1.25% NaHCO3 solution + LVFX 50 mg/kg, n=3",10700 ± 320 ng/mL
same,Cmax,"blood, blood, Group 4: LVFX 50 mg/kg alone, n=3",9970 ± 590 ng/mL
same,AUC(0-inf),[13],11100 ng·h/mL
same,Cmax,[13],10200 ± 700 ng/mL
same,MRT,[13],1.22 h
same,half-life,[13],49.2 ± 10.6 min
same,AUC(0-t),[13],10200 ng·h/mL
same,Cmax,"blood, pH 9, blood, Group 3: physiological saline alkalinized with NaOH (pH 9.0–9.2) + LVFX 50 mg/kg, n=3",9780 ± 390 ng/mL
same,Kp,"brain ECF / blood, AUCu,ECF/AUCu,blood, control group, N=12, read-out: K p,uu,ECF",0.34 ± 0.017
same,AUC(0-inf),[14],3730 ng·h/mL
same,Cmax,[14],2920 ± 520 ng/mL
same,MRT,[14],1.24 h
same,half-life,[14],39.8 ± 14.3 min
same,AUC(0-t),[14],3480 ng·h/mL
same,AUC(0-inf),[15],3600 ng·h/mL
same,Cmax,[15],2720 ± 150 ng/mL
same,MRT,[15],1.4 h
same,half-life,[15],53.4 ± 9.24 min
same,AUC(0-t),[15],3240 ng·h/mL
same,AUC(0-inf),[16],3940 ng·h/mL
same,Cmax,[16],3050 ± 760 ng/mL
same,MRT,[16],1.35 h
same,half-life,[16],49 ± 17.9 min
same,AUC(0-t),[16],3600 ng·h/mL
same,AUC(0-inf),[17],3820 ng·h/mL
same,Cmax,[17],2540 ± 170 ng/mL
same,MRT,[17],1.4 h
same,half-life,[17],49.8 ± 20.7 min
same,AUC(0-t),[17],3470 ng·h/mL
same,AUC(0-inf),[18],3770 ng·h/mL
same,Cmax,[18],2710 ± 300 ng/mL
same,MRT,[18],1.35 h
same,half-life,[18],48 ± 14.7 min
same,AUC(0-t),[18],3450 ng·h/mL
same,Tmax,[18],15 min
same,Tmax,"blood, Group 1: vehicle solution of Tariquidar/Ko143 + LVFX 50 mg/kg, n=3",15 min
same,Tmax,"blood, Group 3: physiological saline alkalinized with NaOH (pH 9.0–9.2) + LVFX 50 mg/kg, n=3",15 min
same,Tmax,"brain ECF, Group 1: vehicle solution of Tariquidar/Ko143 + LVFX 50 mg/kg, n=3",15 min
same,Tmax,"brain ECF, Group 3: physiological saline alkalinized with NaOH (pH 9.0–9.2) + LVFX 50 mg/kg, n=3",15 min
same,AUC(0-inf),[19],4550 ng·h/mL
same,Cmax,[19],3650 ± 270 ng/mL
same,MRT,[19],1.26 h
same,half-life,[19],44.1 ± 11.8 min
same,AUC(0-t),[19],4190 ng·h/mL
same,Tmax,[19],15 min
same,difference in LVFX concentration (and AUC value) between brain ECF and CSF,with or without treatment with transporter inhibitors,< 3 fold
